“And” between values parts separate entries of the source, which are not always exact repeats. Identical values can stand only once. Like-named read-outs stand apart in the source and are kept apart here.
Assays:
[1] = molecular target: T1, Kappa Opioid Receptor (KOR) (Homo sapiens, UniProt P41145); assay: biochemical; details: for Emax at 10 µM: read-out: KOR EMAX, in parentheses: maximum efficacy at 10 μM
T1 construct: membranes used

[2] = molecular target: T1, Kappa Opioid Receptor (KOR); assay: biochemical; type: binding
[3] = molecular target: T2, Delta Opioid Receptor (DOR) (Homo sapiens, UniProt P41143); type: biochemical
T2 construct: 3X-hemagglutinin (HA) (N); expressed in transfected cells; membranes used
T2 sequence (P41143 whole entry): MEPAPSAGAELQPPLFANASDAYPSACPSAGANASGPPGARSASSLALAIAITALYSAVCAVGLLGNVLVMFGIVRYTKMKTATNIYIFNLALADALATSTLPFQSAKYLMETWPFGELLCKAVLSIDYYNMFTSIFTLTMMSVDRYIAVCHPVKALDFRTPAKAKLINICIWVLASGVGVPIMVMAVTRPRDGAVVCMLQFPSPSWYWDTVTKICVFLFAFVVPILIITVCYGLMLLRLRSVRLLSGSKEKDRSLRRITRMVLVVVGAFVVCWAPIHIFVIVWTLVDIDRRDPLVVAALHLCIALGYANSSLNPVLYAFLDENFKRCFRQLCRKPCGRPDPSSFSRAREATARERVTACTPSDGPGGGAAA

[4] = molecular target: T3, Norepinephrine Transporter (NET) (Homo sapiens, UniProt P23975); assay: cell-based; details: for Emax at 10 µM: read-out: NET IMAX, in parentheses: maximum efficacy at 10 μM
T3 construct: HA (N); host or cells: HEK293 (ATCC CRL-1573), electroporated, G418-selected population
T3 sequence (P23975 whole entry): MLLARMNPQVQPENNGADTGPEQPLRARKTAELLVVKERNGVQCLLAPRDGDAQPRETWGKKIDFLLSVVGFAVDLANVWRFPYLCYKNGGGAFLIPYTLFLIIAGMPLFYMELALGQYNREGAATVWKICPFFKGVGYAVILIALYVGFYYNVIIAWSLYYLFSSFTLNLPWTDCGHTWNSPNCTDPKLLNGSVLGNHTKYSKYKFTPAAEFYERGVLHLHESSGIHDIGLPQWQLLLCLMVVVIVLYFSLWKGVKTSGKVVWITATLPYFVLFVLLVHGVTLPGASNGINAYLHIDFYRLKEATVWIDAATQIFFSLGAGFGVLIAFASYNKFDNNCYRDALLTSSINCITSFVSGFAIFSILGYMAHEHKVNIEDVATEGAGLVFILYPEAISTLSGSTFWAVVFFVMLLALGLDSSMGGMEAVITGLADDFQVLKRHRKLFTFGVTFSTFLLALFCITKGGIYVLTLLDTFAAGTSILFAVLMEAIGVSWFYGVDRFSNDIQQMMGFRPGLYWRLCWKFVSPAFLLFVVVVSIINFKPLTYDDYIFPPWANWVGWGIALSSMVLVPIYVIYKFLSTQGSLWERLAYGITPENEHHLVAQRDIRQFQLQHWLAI

[5] = molecular target: T4, Cannabinoid Receptor Type 1 (CB1) (Homo sapiens, UniProt P21554); assay: biochemical
T4 construct: membranes used
T4 sequence (P21554 whole entry): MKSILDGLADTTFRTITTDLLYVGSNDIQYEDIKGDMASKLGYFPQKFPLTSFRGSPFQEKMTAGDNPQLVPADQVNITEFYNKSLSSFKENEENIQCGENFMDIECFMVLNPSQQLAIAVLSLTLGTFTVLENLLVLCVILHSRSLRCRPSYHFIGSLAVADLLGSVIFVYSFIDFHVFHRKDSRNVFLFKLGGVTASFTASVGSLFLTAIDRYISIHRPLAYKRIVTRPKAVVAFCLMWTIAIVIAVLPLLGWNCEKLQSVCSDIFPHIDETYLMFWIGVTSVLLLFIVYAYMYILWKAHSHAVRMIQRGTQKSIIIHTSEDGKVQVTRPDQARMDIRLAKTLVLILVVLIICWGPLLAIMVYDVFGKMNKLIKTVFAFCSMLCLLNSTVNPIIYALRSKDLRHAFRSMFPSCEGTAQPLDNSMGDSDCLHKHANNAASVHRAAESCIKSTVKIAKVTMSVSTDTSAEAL

[6] = molecular target: T5, Serotonin Transporter (SERT) (Homo sapiens, UniProt P31645); assay: cell-based
T5 construct: HA (N); host or cells: HEK293 (ATCC CRL-1573), electroporated, G418-selected population
T5 sequence (P31645 whole entry): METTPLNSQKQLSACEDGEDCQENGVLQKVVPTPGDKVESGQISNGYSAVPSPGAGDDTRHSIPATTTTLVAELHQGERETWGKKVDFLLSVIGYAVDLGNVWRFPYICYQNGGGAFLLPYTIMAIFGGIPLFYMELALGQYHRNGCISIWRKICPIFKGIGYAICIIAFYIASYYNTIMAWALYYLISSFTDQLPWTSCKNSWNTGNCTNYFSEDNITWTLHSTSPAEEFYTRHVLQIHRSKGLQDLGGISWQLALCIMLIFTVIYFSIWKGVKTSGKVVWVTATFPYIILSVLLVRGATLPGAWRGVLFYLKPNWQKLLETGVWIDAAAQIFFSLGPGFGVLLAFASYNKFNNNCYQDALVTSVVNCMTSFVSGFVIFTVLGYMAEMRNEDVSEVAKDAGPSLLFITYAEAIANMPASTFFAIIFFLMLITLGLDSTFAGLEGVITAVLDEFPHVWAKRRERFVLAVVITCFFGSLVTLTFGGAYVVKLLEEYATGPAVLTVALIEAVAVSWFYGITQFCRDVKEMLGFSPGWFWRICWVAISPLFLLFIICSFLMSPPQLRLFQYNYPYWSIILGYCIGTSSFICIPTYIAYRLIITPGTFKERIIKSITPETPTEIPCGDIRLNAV

[7] = molecular target: T6, Dopamine Transporter (DAT) (Homo sapiens, UniProt Q01959); assay: cell-based; type: cell-based; details: for Emax at 10 µM: read-out: DAT IMAX, in parentheses: maximum efficacy at 10 μM
T6 construct: HA (N); host or cells: HEK293 (ATCC CRL-1573), electroporated, G418-selected population
T6 sequence (Q01959 whole entry): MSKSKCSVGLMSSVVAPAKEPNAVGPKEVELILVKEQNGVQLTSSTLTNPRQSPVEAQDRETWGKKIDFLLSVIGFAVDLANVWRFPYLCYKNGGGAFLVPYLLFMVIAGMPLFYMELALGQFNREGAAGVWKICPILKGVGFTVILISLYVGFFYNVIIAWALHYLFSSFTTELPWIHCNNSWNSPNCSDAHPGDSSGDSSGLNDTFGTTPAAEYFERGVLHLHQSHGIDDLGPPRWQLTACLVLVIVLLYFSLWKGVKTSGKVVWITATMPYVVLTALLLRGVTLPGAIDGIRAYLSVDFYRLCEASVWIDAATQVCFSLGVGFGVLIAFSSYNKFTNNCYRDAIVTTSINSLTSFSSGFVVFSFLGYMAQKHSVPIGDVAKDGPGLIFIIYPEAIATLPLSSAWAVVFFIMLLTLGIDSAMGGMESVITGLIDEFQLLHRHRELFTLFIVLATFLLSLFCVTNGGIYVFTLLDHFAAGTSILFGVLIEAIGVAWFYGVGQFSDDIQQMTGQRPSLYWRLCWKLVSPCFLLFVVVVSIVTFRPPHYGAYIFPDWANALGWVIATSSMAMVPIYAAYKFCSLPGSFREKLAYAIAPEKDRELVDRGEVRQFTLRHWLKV

[8] = cited from earlier work
[9] = molecular target: T7, Mu Opioid Receptor (MOR) (Homo sapiens, UniProt P35372); assay: biochemical; details: for Emax: read-out: MOR EMAX (35S-GTPγS)
T7 sequence (P35372 whole entry): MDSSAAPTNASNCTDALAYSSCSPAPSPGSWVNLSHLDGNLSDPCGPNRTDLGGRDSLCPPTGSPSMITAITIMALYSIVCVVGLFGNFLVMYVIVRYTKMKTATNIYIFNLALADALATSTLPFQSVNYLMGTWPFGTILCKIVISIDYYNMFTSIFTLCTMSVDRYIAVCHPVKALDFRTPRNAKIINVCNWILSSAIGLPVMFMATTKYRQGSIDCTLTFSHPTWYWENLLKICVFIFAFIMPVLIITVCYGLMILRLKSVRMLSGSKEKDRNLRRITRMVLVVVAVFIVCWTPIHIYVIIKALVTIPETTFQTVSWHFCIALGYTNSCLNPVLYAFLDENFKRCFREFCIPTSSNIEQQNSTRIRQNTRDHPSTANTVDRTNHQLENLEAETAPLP

[10] = molecular target: T7, Mu Opioid Receptor (MOR); assay: biochemical; type: binding
[11] = molecular target: T6, Dopamine Transporter (DAT); assay: biochemical; type: binding
[12] = molecular target: T8, Sigma-1 Receptor (σ1R) (Homo sapiens, UniProt Q99720); assay: biochemical; type: binding
T8 construct: HA (N); host or cells: HEK293 (ATCC CRL-1573), electroporated, G418-selected population; membranes used
T8 sequence (Q99720 whole entry): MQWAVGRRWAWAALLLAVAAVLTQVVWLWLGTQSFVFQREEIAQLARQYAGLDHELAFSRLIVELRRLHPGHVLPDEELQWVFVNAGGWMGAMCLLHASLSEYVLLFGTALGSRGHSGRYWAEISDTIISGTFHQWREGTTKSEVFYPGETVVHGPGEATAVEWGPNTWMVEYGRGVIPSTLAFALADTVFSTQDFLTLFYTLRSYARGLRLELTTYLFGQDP

[13] = molecular target: T5, Serotonin Transporter (SERT); assay: biochemical; type: binding
[14] = test system: MOR; details: cited from earlier work
[15] = molecular target: T1, Kappa Opioid Receptor (KOR); type: biochemical
[16] = test system: CD-1 mice; details: male CD-1 mice

T1 sequence (P41145 whole entry): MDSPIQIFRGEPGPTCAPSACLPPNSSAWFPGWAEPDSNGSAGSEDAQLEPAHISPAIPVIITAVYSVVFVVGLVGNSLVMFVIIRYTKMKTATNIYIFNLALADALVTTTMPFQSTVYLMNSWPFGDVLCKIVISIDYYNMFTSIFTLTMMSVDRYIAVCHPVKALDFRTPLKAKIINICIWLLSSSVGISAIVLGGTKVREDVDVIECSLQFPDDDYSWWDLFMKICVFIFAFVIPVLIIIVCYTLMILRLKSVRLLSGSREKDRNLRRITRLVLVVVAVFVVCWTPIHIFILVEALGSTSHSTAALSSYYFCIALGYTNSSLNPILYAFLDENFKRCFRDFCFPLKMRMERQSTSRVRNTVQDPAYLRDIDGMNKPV

Which “KOR EMAX, in parentheses: maximum efficacy at 10 μM” value [1] does the source give for `CN(C)C[C@H]1CCCC[C@]1(O)c1cccc(O)c1` [O-Desmethyl-Tramadol, O-desmethyl-tramadol] here?
The value was “(5.9) %”.

What about the “Potential new finding: activity at KOR (in words)” value [1] of the same compound?
Its value is “DOR/KOR partial agonist”.

What about the EC50 ([1]; read-out: KOR EC50 (35S-GTPγS)) of the same compound?
The EC50 was greater than 2000 nM.

What about the Ki ([2]; read-out: Target Binding Affinity Determined by Competition Radioligand Binding–KI, KOR) of the same compound?
The Ki was greater than 2000 nM.

And the “DOR EMAX (35S-GTPγS)” value [3]?
The value was 38 ± 14%.

What about the “Potential new finding: activity at DOR (in words)” value [3] of the same compound?
The value was “DOR/KOR partial agonist”.

What about the EC50 ([3]; read-out: DOR EC50 (35S-GTPγS)) of the same compound?
Its EC50 is 361 nM and 360 nM.

What about the “NET IMAX, in parentheses: maximum efficacy at 10 μM” value [4] of the same compound?
Its value is “(29) %”.

What about the IC50 ([4]; read-out: NET IC50 (transporter assay)) of the same compound?
Its IC50 is greater than 2000 nM.

With Buprenorphine as the compound, how does the “CB1 EMAX, in parentheses: maximum efficacy at 10 μM” value [5] read?
Its value is “(-38) %”.

What about the “Potential new finding: activity at CB1 (in words)” value [5] of the same compound?
Its value is “CB1 inverse agonist; Monoamine transporter activator”.

What about the “Potential new finding: activity at SERT (in words)” value [6] of the same compound?
Its value is “CB1 inverse agonist; Monoamine transporter activator”.

And the “SERT IMAX, in parentheses: maximum efficacy at 10 μM” value [6]?
The value was “(-20) %”.

What about the “DAT IMAX, in parentheses: maximum efficacy at 10 μM” value [7] of the same compound?
Its value is “(-67) %”.

What about the DAT transport activation [7] of the same compound?
The DAT transport activation was 67.2%.

And the “Potential new finding: activity at DAT (in words)” value [7]?
Its value is “CB1 inverse agonist; Monoamine transporter activator”.

What about the “NET IMAX, in parentheses: maximum efficacy at 10 μM” value [4] of the same compound?
The value was “(-26) %”.

And the “Potential new finding: activity at NET (in words)” value [4]?
Its value is “CB1 inverse agonist; Monoamine transporter activator”.

Which results are given for `CN1CC[C@]23c4c5ccc(O)c4O[C@H]2[C@@H](O)C=C[C@H]3[C@H]1C5` [Morphine]?
EC50 [5]: > 2000 nM; Potential new finding: activity at CB1 (in words) [5]: CB1 partial agonist; Emax at 10 µM ([5]; read-out: CB1 EMAX, in parentheses: maximum efficacy at 10 μM): > 41.5%; operational efficacy τ in vivo ([8]; ref [13]–[15]): 20–39 and 39

Which “Potential new finding: activity at KOR (in words)” value [1] does the source give for `CC[C@@H](c1cccc(O)c1)[C@@H](C)CN(C)C` [Tapentadol] here?
Its value is “KOR partial agonist; σ1R binding”.

What about the EC50 ([1]; KOR EC50 (35S-GTPγS)) of the same compound?
Its EC50 is greater than 2000 nM.

And the Emax at 10 µM [1]?
The Emax at 10 µM was 13%.

What about the IC50 [6] of the same compound?
The IC50 was greater than 2000 nM.

And the Emax at 10 µM ([6]; read-out: SERT IMAX, in parentheses: maximum efficacy at 10 μM)?
Its Emax at 10 µM is 68%.

And the Ki [2]?
The Ki was greater than 2000 nM.

What about the IC50 [7] of the same compound?
Its IC50 is greater than 10000 nM.

What about the Emax at 10 µM [7] of the same compound?
Its Emax at 10 µM is 19%.

What about the EC50 ([9]; MOR EC50 (35S-GTPγS)) of the same compound?
Its EC50 is 1300 ± 530 nM.

What about the Emax [9] of the same compound?
Its Emax is 73 ± 7%.

And the Ki [10]?
Its Ki is 2100 ± 84 nM.

And the Ki [11]?
The Ki was greater than 2000 nM.

What about the Ki [12] of the same compound?
The Ki was 2600 ± 410 nM.

And the “Potential new finding: σ1R binding (in words)” value [12]?
Its value is “KOR partial agonist; σ1R binding”.

And the “σ1R binding affinity fold vs. MOR affinity” value [12]?
The value was “nearly the same affinity as the MOR and approximately equal affinity to MOR and same”.

And the Ki [13]?
Its Ki is greater than 2000 nM.

And the IC50 [4]?
The IC50 was greater than 2000 nM.

And the Emax at 10 µM [4]?
Its Emax at 10 µM is 61%.

Which “SERT IMAX (transporter assay)” value [6] does the source give for `Fc1ccc(C(OCCN2CCN(CCCc3ccccc3)CC2)c2ccc(F)cc2)cc1` [GBR12909] here?
The value was 100 ± 0.4%.

Which results are given for `COc1ccc2c3c1O[C@H]1C(=O)CC[C@@]4(O)[C@@H](C2)N(C)CC[C@]314` [Oxycodone]?
Emax at 10 µM [1]: 9.6%; Emax [9]: 90 ± 8%; operational efficacy τ in vivo [8]: 20–39; operational efficacy τ in vitro [14]: 3.3–5.2; KOR antagonist activity (in words) [15]: no KOR antagonist activity

With `COc1ccc2c3c1O[C@H]1C(=O)CC[C@H]4[C@@H](C2)N(C)CC[C@]314` [Hydrocodone] as the compound, how does the Ki [12] read?
Its Ki is 4000 ± 1300 nM.

What about the “Potential new finding: σ1R binding (in words)” value [12] of the same compound?
The value was “KOR partial agonist; CB1 partial agonist; σ1R binding”.

Which “operational efficacy τ in vivo” value [8] does the source give for `CCC(=O)C(CC(C)N(C)C)(c1ccccc1)c1ccccc1` (stereo not shown) [methadone] here?
Its value is 39.

Which Ki [2] does the source give for `COc1cccc(C2(O)CCCCC2CN(C)C)c1` (stereo not shown) [Tramadol] here?
Its Ki is 890 ± 33 nM.

What about the IC50 [7] of the same compound?
The IC50 was greater than 10000 nM.

What about the Emax at 10 µM [7] of the same compound?
Its Emax at 10 µM is 22%.

And the “MOR EMAX (35S-GTPγS)” value [9]?
The value was 26 ± 6%.

And the Emax [9]?
The Emax was 25.5%.

What about the Ki [11] of the same compound?
The Ki was greater than 2000 nM.

And the “KOR antagonist activity (in words)” value [15]?
The value was “no KOR antagonist activity”.

And the Emax at 10 µM [4]?
Its Emax at 10 µM is 57%.

With `CNCC[C@H](Oc1cccc2ccccc12)c1cccs1` [S-Duloxetine, S-duloxetine] as the compound, how does the “AUC increase of buprenorphine anti-nociception (tail flick)” value ([16]; duloxetine 20 mg/kg intraperitoneal 10 minutes before buprenorphine 0.2 mg/kg subcutaneous, 52°C water, 2 hour time course) read?
Its value is 50.6%.

And the “Effect on oxymorphone anti-nociception (tail flick)” value ([16]; duloxetine 20 mg/kg intraperitoneal 10 minutes before oxymorphone 0.3 mg/kg subcutaneous, p > 0.05)?
The value was “no effect”.

What about the “Effect on tail flick baselines” value ([16]; duloxetine 20 mg/kg intraperitoneal alone (followed by vehicle)) of the same compound?
Its value is “no effect”.

With `NC(=O)[C@H](Cc1ccccc1)NC(=O)[C@H](Cc1ccccc1)NC(=O)[C@@H]1CCCN1C(=O)[C@@H](N)Cc1ccc(O)cc1` [Endomorphin-2] as the compound, how does the Emax [9] read?
The Emax was 97 ± 2%.

— PMC6553708 (PLoS ONE, 2019)
